From patent US20140163012A1, “PYRIDO-/AZEPINO-BENZOFURAN AND PYRIDO-/AZEPINO-BENZOTHIOPHENE MCH-1 ANTAGONISTS, METHODS OF MAKING, AND USE THEREOF” (Albany Molecular Research, Inc., priority 2012, published 2014)

How the values were obtained:
[1] = biological target: human MCH-1 receptor (Homo sapiens, UniProt Q99705); assay: Binding assay for human melanin-concentrating hormone (MCH-1) receptor, radioligand displacement on CHO-K1 cell membranes; conditions: for inhibition at 1 µM: read-out: MCH1 % inhibition @ 1 uM
Sequence of human MCH-1 receptor (Q99705 whole entry): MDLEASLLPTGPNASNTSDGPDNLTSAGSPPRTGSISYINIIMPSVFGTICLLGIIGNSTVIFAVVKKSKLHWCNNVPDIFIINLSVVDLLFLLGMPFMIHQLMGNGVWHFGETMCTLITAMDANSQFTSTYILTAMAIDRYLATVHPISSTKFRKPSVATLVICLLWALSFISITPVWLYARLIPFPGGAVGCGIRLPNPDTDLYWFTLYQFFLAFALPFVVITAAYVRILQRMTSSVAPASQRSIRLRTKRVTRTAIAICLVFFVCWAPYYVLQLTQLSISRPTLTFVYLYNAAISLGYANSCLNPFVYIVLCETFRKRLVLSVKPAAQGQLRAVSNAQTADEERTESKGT

Row | SMILES | melting point [°C] | Ki [1] [nM] | inhibition at 1 µM [1] [%]
1 | Cl.O=c1nc(CCc2ccc(Cl)cn2)ccn1-c1ccc2c3c(oc2c1)CCNC3 [Example 101, 4-(2-(5-Chloropyridin-2-yl)ethyl)-1-(1,2,3,4-tetrahydrobenzofuro[3,2-c]pyridin-7-yl)pyrimidin-2(1H)-one hydrochloride] | 155 to 160 | 20 | –
2 | Cl.O=c1cc(CCc2ccc(F)cn2)ccn1-c1ccc2c3c(oc2c1)CCNC3 [Example 102, 4-(2-(5-Fluoropyridin-2-yl)ethyl)-1-(1,2,3,4-tetrahydrobenzofuro[3,2-c]pyridin-7-yl)pyridin-2(1H)-one hydrochloride] | 165 to 169 | 29 | –
3 | Cl.O=c1cc(CCc2ccccc2)ccn1-c1ccc2c3c(oc2c1)CCNC3 [Example 104, 4-Phenethyl-1-(1,2,3,4-tetrahydrobenzofuro[3,2-c]pyridin-7-yl)pyridin-2(1H)-one hydrochloride] | 283 to 289 | 6.6 | –
4 | Cl.O=c1cc(CCc2ccc(Cl)cn2)ccn1-c1ccc2c3c(oc2c1)CCNC3 [Example 105, 4-(2-(5-Chloropyridin-2-yl)ethyl)-1-(1,2,3,4-tetrahydrobenzofuro[3,2-c]pyridin-7-yl)pyridin-2(1H)-one hydrochloride] | 285 to 288 | 12 | –
5 | COc1ccc(-c2ccn(-c3ccc4c5c(oc4c3)CCNC5)c(=O)c2)c(F)c1.Cl [Example 111, 4-(2-Fluoro-4-methoxyphenyl)-1-(1,2,3,4-tetrahydrobenzofuro[3,2-c]pyridin-7-yl)pyridin-2(1H)-one hydrochloride] | 282 to 284 | 16 | –
6 | COc1ccc(-c2ccn(-c3ccc4c5c(oc4c3)CCNC5)c(=O)c2)c(Cl)c1.Cl [Example 112, 4-(2-Chloro-4-methoxyphenyl)-1-(1,2,3,4-tetrahydrobenzofuro[3,2-c]pyridin-7-yl)pyridin-2(1H)-one hydrochloride] | 294 to 297 | 6.9 | –
7 | Cl.O=c1cc(OCc2ccc(C(F)(F)F)nn2)ccn1-c1ccc2c3c(oc2c1)CCNC3 [Example 113, 1-(1,2,3,4-Tetrahydrobenzofuro[3,2-c]pyridin-7-yl)-4-((6-(trifluoromethyl)pyridazin-3-yl)methoxy)pyridin-2(1H)-one hydrochloride] | 289 to 291 | 20 | –
8 | Cc1cc(OC(F)(F)F)ccc1-c1ccn(-c2ccc3c4c(oc3c2)CCNC4)c(=O)c1.Cl [Example 114, 4-(2-Methyl-4-(trifluoromethoxy)phenyl)-1-(1,2,3,4-tetrahydrobenzofuro[3,2-c]pyridin-7-yl)pyridin-2(1H)-one hydrochloride] | 299 to 301 | 7.3 | –
9 | Cl.O=c1cc(OCc2ccccc2)ccn1-c1ccc2sc3c(c2c1)CNCCC3 [Example 118, 4-Benzyloxy-1-(2,3,4,5-tetrahydro-1H-benzo[4,5]thieno[3,2-c]azepin-9-yl)pyridin-2(1H)-one hydrochloride] | 176 to 178 | – | 7.7
10 | Cl.O=c1cc(OCc2ccc(F)cn2)ccn1-c1ccc2sc3c(c2c1)CNCCC3 [Example 119, 4-((5-Fluoropyridin-2-yl)methoxy)-1-(2,3,4,5-tetrahydro-1H-benzo[4,5]thieno[3,2-c]azepin-9-yl)pyridin-2(1H)-one hydrochloride] | 170 to 172 | – | -2.6
11 | Cl.O=c1cc(OCc2ccc(F)cn2)ccn1-c1ccc2sc3c(c2c1)CCCNC3 [Example 120, 4-(5-Fluoropyridin-2-ylmethoxy)-1-(2,3,4,5-tetrahydro-1H-benzo[4,5]thieno[2,3-c]azepin-7-yl)pyridin-2(1H)-one hydrochloride] | 180 to 182 | – | 1.3
